The values that follow come from paper PMC3042952 (Nature structural & molecular biology, 2009).

One test has as its target T1, T2-TrpRS (Homo sapiens, UniProt P23381).
T1 sequence (P23381 94-471): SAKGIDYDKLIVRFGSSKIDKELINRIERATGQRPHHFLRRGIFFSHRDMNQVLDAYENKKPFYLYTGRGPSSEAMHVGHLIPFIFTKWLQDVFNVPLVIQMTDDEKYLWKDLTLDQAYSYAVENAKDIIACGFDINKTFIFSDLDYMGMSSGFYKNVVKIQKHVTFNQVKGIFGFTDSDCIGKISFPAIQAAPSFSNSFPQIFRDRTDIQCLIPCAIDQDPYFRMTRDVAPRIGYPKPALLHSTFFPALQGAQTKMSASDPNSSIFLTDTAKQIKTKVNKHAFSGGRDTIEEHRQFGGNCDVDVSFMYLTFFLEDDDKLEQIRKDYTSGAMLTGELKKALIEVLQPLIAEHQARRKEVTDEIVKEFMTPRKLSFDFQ
Nature of the test: isothermal titration calorimetry. The format is binding. Background: ITC needs no label: the signal is the heat of the interaction.

Test [1] concerns the target T2, human VE-cadherin (extracellular portion)-Fc fusion, purified (human, UniProt P33151 48-599).
T2 sequence (looked up): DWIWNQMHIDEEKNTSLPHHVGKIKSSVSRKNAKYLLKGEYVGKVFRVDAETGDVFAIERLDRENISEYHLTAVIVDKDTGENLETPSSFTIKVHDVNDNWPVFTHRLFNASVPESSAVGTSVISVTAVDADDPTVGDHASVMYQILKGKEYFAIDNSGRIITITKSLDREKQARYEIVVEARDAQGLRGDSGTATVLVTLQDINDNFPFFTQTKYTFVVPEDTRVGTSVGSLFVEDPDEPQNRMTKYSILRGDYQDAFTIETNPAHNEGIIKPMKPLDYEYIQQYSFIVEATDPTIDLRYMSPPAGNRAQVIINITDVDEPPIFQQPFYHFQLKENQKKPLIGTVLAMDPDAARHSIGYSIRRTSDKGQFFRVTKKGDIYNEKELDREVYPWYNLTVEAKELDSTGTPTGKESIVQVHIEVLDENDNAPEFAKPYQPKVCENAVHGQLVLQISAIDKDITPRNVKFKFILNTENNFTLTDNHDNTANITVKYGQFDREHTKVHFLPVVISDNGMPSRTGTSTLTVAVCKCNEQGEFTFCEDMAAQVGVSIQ
Nature of the test: co-IP.

For orientation: Kd means the constant that tells how readily two partners part at equilibrium. Read a high Kd as lower affinity. Consider `N[C@@H](Cc1c[nH]c2ccccc12)C(=O)O` [Trp], for which binding at T2-TrpRS was characterised by a dissociation constant (Kd) of 11 µM.

B1: full-length human tryptophanyl-tRNA synthetase (FL-TrpRS) (enzyme, UniProt P23381 1-471, looked up)
chain: MPNSEPASLLELFNSIATQGELVRSLKAGNASKDEIDSAVKMLVSLKMSYKAAAGEDYKADCPPGNPAPTSNHGPDATEAEEDFVDPWTVQTSSAKGIDYDKLIVRFGSSKIDKELINRIERATGQRPHHFLRRGIFFSHRDMNQVLDAYENKKPFYLYTGRGPSSEAMHVGHLIPFIFTKWLQDVFNVPLVIQMTDDEKYLWKDLTLDQAYSYAVENAKDIIACGFDINKTFIFSDLDYMGMSSGFYKNVVKIQKHVTFNQVKGIFGFTDSDCIGKISFPAIQAAPSFSNSFPQIFRDRTDIQCLIPCAIDQDPYFRMTRDVAPRIGYPKPALLHSTFFPALQGAQTKMSASDPNSSIFLTDTAKQIKTKVNKHAFSGGRDTIEEHRQFGGNCDVDVSFMYLTFFLEDDDKLEQIRKDYTSGAMLTGELKKALIEVLQPLIAEHQARRKEVTDEIVKEFMTPRKLSFDFQ
As to B1, the “amount bound relative to T2-TrpRS” value in test [1] is roughly 5%.
